pEC50: −log10 of the molar value.
Key:
Type in all cases: cell-based
[1] = system: HBV; experiment: anti HBV activity, HepG2.117 inducibly HBV producing cell line (Tet-off), intracellular HBV DNA by realtime PCR; conditions: Hepatitis B virus, 72 h, HepG2.117 cells, 3 days of treatment
[2] = Cytotoxicity, HepG2 cells, Resazurin assay; conditions: human
[3] = system: HBV; experiment: anti-HBV activity, HepG2.2.15 stable transfected cell line, HBV DNA from secreted virions by realtime PCR; conditions: Hepatitis B virus, 144 h, HepG2.2.15 cells, 6 days of treatment

SMILES	pEC50 [1]	CC50 at 4 days [2] [nM]	pEC50 [3]
Cn1cc(S(=O)(=O)NC2(C)COC2)cc1C(=O)Nc1ccnc(C#N)c1 [Compound 1, N-(2-Cyanopyridin-4-yl)-1-methyl-4-[(3-methyloxetan-3-yl)sulfamoyl]-1H-pyrrole-2-carboxamide]	6.19	> 25000	6.07
CC[C@@H](NS(=O)(=O)c1cn(C)c(C(=O)Nc2ccnc(C(F)F)c2)c1Cl)C(F)(F)F [Compound 85, 3-chloro-N-[2-(difluoromethyl)-4-pyridyl]-1-methyl-4-[[(1R)-1-(trifluoromethyl)propyl]sulfamoyl]pyrrole-2-carboxamide]	7.40	24000	7.70
Cn1cc(S(=O)(=O)NC2(C(F)(F)F)CC2)c(Cl)c1C(=O)Nc1ccnc(C#N)c1 [Compound 39, 3-chloro-N-(2-cyano-4-pyridyl)-1-methyl-4-[[1-(trifluoromethyl)cyclopropyl]-sulfamoyl]pyrrole-2-carboxamide]	7.05	> 25000	7.05
Cc1cc(NC(=O)c2c(Cl)c(S(=O)(=O)N[C@H](C)C(C)(F)F)cn2C)cc(Cl)n1 [Compound 149, 3-chloro-N-(2-chloro-6-methyl-4-pyridyl)-4-[[(1R)-2,2-difluoro-1-methyl-propyl]sulfamoyl]-1-methyl-pyrrole-2-carboxamide]	7.22	> 25000	
Cn1cc(S(=O)(=O)NC2(C(F)(F)F)CCOCC2)c(Cl)c1C(=O)Nc1ccnc(Cl)c1 [Compound 180, 3-chloro-N-(2-chloro-4-pyridyl)-1-methyl-4-[[4-(trifluoromethyl)tetrahydropyran-4-yl]sulfamoyl]pyrrole-2-carboxamide]	6.20	> 25000	
Cn1cc(S(=O)(=O)NC2(C(F)(F)F)CCC2)c(F)c1C(=O)Nc1ccnc(C#N)c1F [Compound 167, N-(2-cyano-3-fluoro-4-pyridyl)-3-fluoro-1-methyl-4-[[1-(trifluoromethyl)cyclobutyl]sulfamoyl]pyrrole-2-carboxamide]	8.30	> 25000	
Cc1c(S(=O)(=O)N[C@H](C)C(F)(F)F)c(F)c(C(=O)Nc2ccnc(C#N)c2)n1C [Compound 71, N-(2-cyano-4-pyridyl)-3-fluoro-1,5-dimethyl-4-[[(1R)-2,2,2-trifluoro-1-methyl-ethyl]sulfamoyl]pyrrole-2-carboxamide]	7.70	> 25000	
C[C@@H](NS(=O)(=O)c1cn(C)c(C(=O)Nc2ccnc(F)c2F)c1Cl)C(F)(F)F [Compound 138, 3-chloro-N-(2,3-difluoro-4-pyridyl)-1-methyl-4-[[(1R)-2,2,2-trifluoro-1-methyl-ethyl]sulfamoyl]pyrrole-2-carboxamide]	7.05	> 25000	
C[C@@H](NS(=O)(=O)c1cn(C)c(C(=O)Nc2ccnc(Cl)c2)c1Cl)C(C)(F)F [Compound 94, 3-chloro-N-(2-chloro-4-pyridyl)-4-[[(1R)-2,2-difluoro-1-methyl-propyl]sulfamoyl]-1-methyl-pyrrole-2-carboxamide]	7.52	> 25000	
CC(C)NS(=O)(=O)c1cn(C)c(C(=O)Nc2ccnc(C#N)c2)c1F [Compound 27, N-(2-cyano-4-pyridyl)-3-fluoro-4-(isopropylsulfamoyl)-1-methyl-pyrrole-2-carboxamide]	7.00	> 25000	
C[C@H](NS(=O)(=O)c1cn(C)c(C(=O)Nc2ccnc(Cl)c2)c1F)C(C)(F)F [Compound 59, N-(2-chloro-4-pyridyl)-4-[[(1S)-2,2-difluoro-1-methyl-propyl]sulfamoyl]-3-fluoro-1-methyl-pyrrole-2-carboxamide]	7.15	> 25000	
Cn1cc(S(=O)(=O)NC2(C)CC(F)(F)C2)c(Cl)c1C(=O)Nc1ccnc(Cl)c1F [Compound 114, 3-chloro-N-(2-chloro-3-fluoro-4-pyridyl)-4-[(3,3-difluoro-1-methyl-cyclobutyl)sulfamoyl]-1-methyl-pyrrole-2-carboxamide]	8.00	> 25000	
CC[C@@H](C)NS(=O)(=O)c1cn(C)c(C(=O)Nc2ccnc(C#N)c2)c1Cl [Compound 72, 3-chloro-N-(2-cyano-4-pyridyl)-1-methyl-4-[[(1R)-1-methylpropyl]-sulfamoyl]pyrrole-2-carboxamide]	7.00	> 25000	
Cc1cc(NC(=O)c2c(F)c(S(=O)(=O)NC3(C)CC(F)(F)C3)cn2C)cc(Cl)n1 [Compound 130, N-(2-chloro-6-methyl-4-pyridyl)-4-[(3,3-difluoro-1-methyl-cyclobutyl)sulfamoyl]-3-fluoro-1-methyl-pyrrole-2-carboxamide]	7.22	> 25000	
Cn1cc(S(=O)(=O)NC2(C(F)(F)F)CCC2)c(F)c1C(=O)Nc1cc(F)nc(F)c1 [Compound 168, N-(2,6-difluoro-4-pyridyl)-3-fluoro-1-methyl-4-[[1-(trifluoromethyl)cyclobutyl]sulfamoyl]pyrrole-2-carboxamide]	8.22	> 25000	
C[C@@H](NS(=O)(=O)c1cn(C)c(C(=O)Nc2ccnc(C(F)(F)F)c2)c1Cl)C(C)(F)F [Compound 150, 3-chloro-4-[[(1R)-2,2-difluoro-1-methyl-propyl]sulfamoyl]-1-methyl-N-[2-(trifluoromethyl)-4-pyridyl]pyrrole-2-carboxamide]	7.05	> 25000	
CC[C@@H](C)NS(=O)(=O)c1cn(C)c(C(=O)Nc2ccnc(C(F)F)c2)c1F [Compound 86, N-[2-(difluoromethyl)-4-pyridyl]-3-fluoro-1-methyl-4-[[(1R)-1-methylpropyl]sulfamoyl]pyrrole-2-carboxamide]	7.40	21600	
Cn1cc(S(=O)(=O)NC2(C(F)(F)F)CCC2)c(F)c1C(=O)Nc1ccnc(C#N)c1 [Compound 123, N-(2-cyano-4-pyridyl)-3-fluoro-1-methyl-4-[[1-(trifluoromethyl)cyclobutyl]sulfamoyl]pyrrole-2-carboxamide]	8.00	> 25000	
C[C@@H](NS(=O)(=O)c1cn(C)c(C(=O)Nc2c(F)cnc(F)c2F)c1Cl)C(F)(F)F [Compound 44, 3-chloro-1-methyl-4-[[(1R)-2,2,2-trifluoro-1-methyl-ethyl]sulfamoyl]-N-(2,3,5-trifluoro-4-pyridyl)pyrrole-2-carboxamide]	6.19	> 25000	
C[C@@H](NS(=O)(=O)c1cn(C)c(C(=O)Nc2ccnc(C#N)c2F)c1Cl)C(C)(F)F [Compound 151, 3-chloro-N-(2-cyano-3-fluoro-4-pyridyl)-4-[[(1R)-2,2-difluoro-1-methyl-propyl]sulfamoyl]-1-methyl-pyrrole-2-carboxamide]	7.52	> 25000	
CC[C@H](NS(=O)(=O)c1cn(C)c(C(=O)Nc2ccnc(C(F)F)c2)c1Cl)C(F)(F)F [Compound 84, 3-chloro-N-[2-(difluoromethyl)-4-pyridyl]-1-methyl-4-[[(1S)-1-(trifluoromethyl)propyl]sulfamoyl]pyrrole-2-carboxamide]	6.96	> 25000	
Cn1cc(S(=O)(=O)NC2(C(F)(F)F)CCC2)c(Cl)c1C(=O)Nc1ccnc(Br)c1 [Compound 110, N-(2-bromo-4-pyridyl)-3-chloro-1-methyl-4-[[1-(trifluoromethyl)cyclobutyl]sulfamoyl]pyrrole-2-carboxamide]	7.70	> 25000	
C[C@@H](NS(=O)(=O)c1cn(C)c(C(=O)Nc2ccnc(Br)c2F)c1F)C(F)(F)F [Compound 153, N-(2-bromo-3-fluoro-4-pyridyl)-3-fluoro-1-methyl-4-[[(1R)-2,2,2-trifluoro-1-methyl-ethyl]sulfamoyl]pyrrole-2-carboxamide]	7.70	> 25000	
C[C@@H](NS(=O)(=O)c1cc(C(=O)Nc2ccnc(F)c2)n(C)c1)C(C)(F)F [Compound 102, 4-[[(1R)-2,2-difluoro-1-methyl-propyl]sulfamoyl]-N-(2-fluoro-4-pyridyl)-1-methyl-pyrrole-2-carboxamide]	6.74	> 25000	
Cn1cc(S(=O)(=O)NC2(C)CC(F)(F)C2)c(Cl)c1C(=O)Nc1ccnc(Br)c1F [Compound 161, N-(2-bromo-3-fluoro-4-pyridyl)-3-chloro-4-[(3,3-difluoro-1-methyl-cyclobutyl)sulfamoyl]-1-methyl-pyrrole-2-carboxamide]	8.00	> 25000	
C[C@@H](NS(=O)(=O)c1cn(C)c(C(=O)Nc2ccc(F)cn2)c1Cl)C(F)(F)F [Compound 51, 3-chloro-N-(5-fluoro-2-pyridyl)-1-methyl-4-[[(1R)-2,2,2-trifluoro-1-methyl-ethyl]sulfamoyl]pyrrole-2-carboxamide]	6.22	> 25000	
Cn1cc(S(=O)(=O)NC2(C)CC(F)(F)C2)c(F)c1C(=O)Nc1cc(Br)nc(Br)c1 [Compound 135, N-(2,6-dibromo-4-pyridyl)-4-[(3,3-difluoro-1-methyl-cyclobutyl)sulfamoyl]-3-fluoro-1-methyl-pyrrole-2-carboxamide]	6.74	13000	
C[C@@H](NS(=O)(=O)c1cn(C)c(C(=O)Nc2ccnc(C(F)F)c2F)c1Cl)C(F)(F)F [Compound 142, 3-chloro-N-[2-(difluoromethyl)-3-fluoro-4-pyridyl]-1-methyl-4-[[(1R)-2,2,2-trifluoro-1-methyl-ethyl]sulfamoyl]pyrrole-2-carboxamide]	7.70	> 25000	
C[C@@H](NS(=O)(=O)c1cn(C)c(C(=O)Nc2cc(C#N)ccn2)c1Cl)C(F)(F)F [Compound 183, 3-chloro-N-(4-cyano-2-pyridyl)-1-methyl-4-[[(1R)-2,2,2-trifluoro-1-methyl-ethyl]sulfamoyl]pyrrole-2-carboxamide]	5.85	> 25000	
C[C@@H](NS(=O)(=O)c1cc(C(=O)Nc2ccnc(Cl)c2)n(C)c1)C(C)(F)F [Compound 103, N-(2-chloro-4-pyridyl)-4-[[(1R)-2,2-difluoro-1-methyl-propyl]sulfamoyl]-1-methyl-pyrrole-2-carboxamide]	6.85	> 25000	
